What all share (format): cell-based
One assay has as its system Microsporum canis 373. The assay can be described thus: Broth microdilution MIC (M38-A), filamentous fungi, strain VI. How it is done:
(§1) For the experiments of the present invention, the dermatophyte-type fungi strains that were obtained from clinical isolates and laboratory isolates, as described in Table 2 as follows, were used:
(§2) The fungal strains were grown on agar potato medium in a sloping chute at a temperature of 30° C. for a period of 7 to 15 days.
(§3) For the experiments, the compound 1-[2-(2,4-dichlorophenyl)-2-{[4-(trifluoromethyl)benzyl]oxy}ethyl]-1H-imidazole (BL-123) in the form of its nitrate salt and miconazole nitrate were used. Both compounds were dissolved in dimethyl sulfoxide (DMSO) to match the final concentration of the compound equal to or less than 1%.
(§4) The methodology used to test the sensitivity of the agent was of broth microdilution according to the method described in Standard M38-A (Reference method for broth dilution tests for determining the sensitivity to antifungal therapy for filamentous fungi; NCCLS, volume 22 No. 16, USA, 2008) as follows.
(§5) The fungus was cultivated pursuant to item 4.1. To the tubes wherein the fungi were grown, 5 mL of saline solution were added in order to extract the fungi from the agar surface. Then, this homogeneous suspension was transferred to a new tube and the colony-forming units (CFUs) were quantified according to counting methods: (i) in Sabouraud dextrose agar plates and (ii) in a Neubauer chamber.
(§6) Then, the fungi strains listed in Table 2 were inoculated in duplicate in a 96-well plate. There were used inocula of from 2 to 6×10^3 CFU/mL of fungi, per well, in a total volume of 0.2 mL of RPMI-1640 (containing L-glutamine and without bicarbonate) buffered at pH 7.0 with MOPS (acid 3-(N-morpholine) 15 propanesulfonic). The procedure was performed in a laminar flow.
(§7) The compounds to be tested were added in a serial dilution, in duplicate, in final concentrations of 16 μg/mL; 8 μg/mL; 4 μg/mL; 2 μg/mL; 1 μg/mL; 0.5 μg/mL; 0.25 μg/mL; 0.125 μg/mL; 0.0625 μg/mL; or 0.03125 μg/mL in culture medium present in each well.
(§8) The incubation of fungi with these compounds was performed by 4, 5, 6 and 7 days at temperatures from 30 to 35° C.
(§9) The fungi quantification was carried out with the growth of fungi in each well being compared to the growth occurred in the negative control by means of a mirror reading. The negative control is represented by fungi grown in culture medium in the absence of the tested compounds. The methodology of this comparison is the numerical rating to which the microdilution well was submitted. […]

In another assay the test system is Trichophyton rubrum 455. The assay is described as follows: Broth microdilution MIC (M38-A), filamentous fungi, strain VIII. Conditions: for MIC: Trichophyton rubrum; for Resistance or sensitivity of the strain to the agent (in words): clinical isolate strain VIII. The method, then:
as §1, §2, §3, §4, §5, §6, §7, §8
(§10) The fungi quantification was carried out with the growth of fungi in each well being compared to the growth occurred in the negative control by means of a mirror reading. The negative control is represented by fungi grown in culture medium in the absence of the tested compounds. The methodology of this comparison is the numerical rating to which the microdilution well was submitted. In this methodology, value 4 corresponds to no reduction of growth, value 3 corresponds to a slight reduction in growth or approximately 75% of the growth of the negative control, value 2 corresponds to a standout reduction in growth or approximately 50% of growth of negative control; value 1 corresponds to a slight growth or approximately 25% of the growth of the negative control, and value 0 corresponds to optically clear or absence of growth.
(§11) In this experiment, the minimum inhibitory concentration (MIC) is considered as the lowest concentration of the agent capable of inhibiting at least 80% of the growth of colony-forming units (CFUs).
A general note: Dilution methods test growth across graded concentrations, often in twofold steps.

For assay [1], the system named is Candida parapsilosis 22019. The assay is described as follows: Broth microdilution MIC (M38-A), filamentous fungi test, strain IX. Conditions: 96 h; strain IX 22019, reading Day 4, average of four experiments. The method, then:
as §1, §2, §3, §4
The fungus was cultivated pursuant to item 4.1. […] Then, this homogeneous suspension was transferred to a new tube and the colony-forming units (CFUs) were quantified according to counting methods: (i) in Sabouraud dextrose agar plates and (ii) in a Neubauer chamber. […]
The fungi quantification was carried out with the growth of fungi in each well being compared to the growth occurred in the negative control by means of a mirror reading. […]

In assay [2] the test system is Trichophyton mentagrophytes 40004. The assay can be described thus: Broth microdilution MIC (M38-A), filamentous fungi, strain X. The method, then: as §1, §2, §3, §4, §5, §6, §7, §8, §9
The test system of assay [3] is Trichophyton rubrum 40005. The assay is described as follows: Broth microdilution MIC (M38-A), filamentous fungi, strain XI. The method, then: as §1, §2, §3, §4, §5, §6, §7, §8, §9
The subject of assay [4] is filamentous fungi strains of Table 2 (n = 13). The assay is described as follows: MIC50, MIC90 and variation of MICs over the 13 strains of Table 2. To be noted: for MIC50 / MIC90: n = 13 strains; for MIC50: read-out: MIC50 (minimum inhibitory concentration to inhibit 50% of strains), Average MIC; for MIC90: read-out: MIC90 (minimum inhibitory concentration to inhibit 90% of strains), Average MIC. How it is done: as §1, §2, §3, §4, §5, §6, §7, §8, §10, §11

Assay [5] has as its system Staphylococcus epidermidis 12228. The assay is described as follows: Broth microdilution MIC (M7-A6), bacteria, strain XVII. To be noted: Staphylococcus epidermidis; strain XVII 12228, 24 hours incubation; read-out: MIC. The method, then: For the experiments of the present invention (i) yeast strains obtained from clinical isolates and laboratory isolates, and (ii) bacterial strains obtained from laboratory isolates were used, as described in Table 5 as follows. […] The compounds were dissolved in dimethyl sulfoxide (DMSO) to match the final concentration of the compound equal to or less than 1%. The methodology used to test the sensitivity of the agent was broth microdilution according to the method described in Standard M7-A6 (Methodology of sensitivity tests to antimicrobial agents by dilution for bacteria with aerobic growth-6th Edition: NCCLS, volume 23, No. 2, USA, 2003), as follows. […] Then the suspensions were diluted in Mueller Hinton culture medium to a final concentration of 5×10^4CFU/mL. The diluted suspensions were inoculated in 0.1 mL in duplicates in […] plates. The procedure was performed in a laminar flow. […] Incubation of fungi with these compounds was carried out for 24 hours at a temperature of 30 to 35° C. […] We have agreed in this experiment that the turbid medium is the result of microbial growth and the presence of deposit and a clear medium represents the absence of microbial growth. The minimum inhibitory concentration (MIC) was defined as the lowest tested drug concentration that prevents any degree of bacterial growth.

The mark [6] stands for this setting: 96 h, strain VI 373, reading Day 4, average of four experiments.
The mark [7] stands for this setting: 168 h, strain VI 373, reading Day 7, average of four experiments.
Setting [8] is: 96 h, strain VIII 455, reading Day 4, average of four experiments.
The mark [9] stands for this setting: 168 h, strain VIII 455, reading Day 7, average of four experiments.
The mark [10] stands for this setting: 96 h, strain X 40004, reading Day 4, average of four experiments.
The mark [11] stands for this setting: 168 h, strain X 40004, reading Day 7, average of four experiments.
Where [12] appears, read: 96 h, strain XI 40005, reading Day 4, average of four experiments.
Where [13] appears, read: 168 h, strain XI 40005, reading Day 7, average of four experiments.

≈ marks a conversion by molar mass, not a printed value. Read-outs that look alike come from different tables or passages of the source.

As a reminder, the MIC is the smallest concentration in the dilution series that meets the test's criterion for growth inhibition. With `FC(F)(F)c1ccc(COC(Cn2ccnc2)c2ccc(Cl)cc2Cl)cc1` (stereo not shown) [BL-123, 1-[2-(2,4-dichlorophenyl)-2-{[4-(trifluoromethyl)benzyl]oxy}ethyl]-1H-imidazole], the MIC in the assay with Microsporum canis 373 (setting [6]) was 0.125 µg/mL (≈ 0.301 µM); against Microsporum canis 373 (setting [7]) it was 0.5 µg/mL (≈ 1.2 µM); against Trichophyton rubrum 455 (setting [8]), 4 µg/mL (≈ 9.63 µM); with Trichophyton rubrum 455 (setting [9]), 8 µg/mL (≈ 19.3 µM); in assay [1] it was 2 µg/mL (≈ 4.82 µM); in assay [2] (setting [10]) it was 0.25 µg/mL (≈ 0.602 µM). The MIC in assay [2] (setting [11]) turned out to be 0.5 µg/mL (≈ 1.2 µM); in assay [3] (setting [12]), 0.25 µg/mL (≈ 0.602 µM); in assay [3] (setting [13]) it was 0.5 µg/mL (≈ 1.2 µM); in assay [5], 4 µg/mL (≈ 9.63 µM). The “Resistance or sensitivity of the strain to the agent (in words)” value in the assay with Trichophyton rubrum 455 is given as “sensitive”. Moreover, in assay [4] (13 different strains, seven different species), the “Inhibitory effect on growth (in words)” value is “exerts an inhibitory effect on growth”. For the same compound, the MIC50 in assay [4] (96 h, Day 4) came out at 0.25 µg/mL (≈ 0.602 µM); in assay [4] (168 h, Day 7), 0.5 µg/mL (≈ 1.2 µM). In addition, the MIC90 in assay [4] (96 h, Day 4) was 4 µg/mL (≈ 9.63 µM); in assay [4] (168 h, Day 7), 8 µg/mL (≈ 19.3 µM).
For the compound `Clc1ccc(COC(Cn2ccnc2)c2ccc(Cl)cc2Cl)c(Cl)c1` (stereo not shown) [Miconazole, miconazole, reference compound], the MIC in the assay on Microsporum canis 373 (setting [6]) is 0.5 µg/mL (≈ 1.2 µM); against Microsporum canis 373 (setting [7]) it was 1 µg/mL (≈ 2.4 µM); against Trichophyton rubrum 455 (setting [8]), over 16 µg/mL; in the assay on Trichophyton rubrum 455 (setting [9]), over 16 µg/mL; in assay [1] it was 1 µg/mL (≈ 2.4 µM); in assay [2] (setting [10]) it was 0.5 µg/mL (≈ 1.2 µM). The MIC in assay [2] (setting [11]) worked out at 1 µg/mL (≈ 2.4 µM); in assay [3] (setting [12]), 0.5 µg/mL (≈ 1.2 µM); in assay [3] (setting [13]) it was 1 µg/mL (≈ 2.4 µM); in assay [5] it was 2 µg/mL (≈ 4.81 µM). For the same compound, the “Resistance or sensitivity of the strain to the agent (in words)” value with Trichophyton rubrum 455 is on record as “resistant”. The MIC50 in assay [4] (96 h, Day 4) came out at 0.5 µg/mL (≈ 1.2 µM); in assay [4] (168 h, Day 7), 1 µg/mL (≈ 2.4 µM). For the same compound, the MIC90 in assay [4] (96 h, Day 4) was over 16 µg/mL; in assay [4] (168 h, Day 7), over 16 µg/mL.

For the origin of these results see patent publication US8975289B2, “Benzyl aralkyl ether compounds, method for preparing same, intermediate compounds, use of said compounds, method for treatment and/or prevention, pharmaceutical composition and medicament containing same” (priority 2009, dated 2015).
